# Measurements: patent US10512667B2, “Compositions and methods for treating conditions related to adrenocortical activity and/or excessive steroid production” (The Regents of the University of Michigan, priority 2017, dated 2019)
# Entries after “also recorded” stand apart in the source; their conditions may differ.
# Experiments:
# [1] = tested on: H295R cells; assay: Visualization of cholesterol levels by filipin III binding; format: cell-based
# Method in brief: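 Cells adhered 48 h, treated with compounds, fixed in 4% paraformaldehyde 20 min, then stained with 100 μg/ml filipin III for 2 h at 37 C in the dark and imaged. Esterification visualized after 2 h culture with 1 μM NBD-cholesterol following compound incubation.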
# [2] = tested on: H295R cells; assay: Cellular ATP level (CellTiter-Glo); settings: for ATP level, compound alone: serum-containing medium;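 for all read-outs here: ATP quantified by luminescence after lysing the cells in CellTiter-Glo reagent, with compound exposure at 37 °C under 5% CO2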
# [3] = tested on: H295R cells; assay: Cholesterol crystallization and extracellular cholesterol associated with cells; format: cell-based; settings: compound in combination with ATR-101
# Experimental: To quantify cholesterol crystallization, experiments were conducted that measured the total extracellular cholesterol that was associated with the cells. After culturing cells with the indicated compounds, the culture medium was removed. Medium lacking cholesterol was added to the cells, and the extracellular cholesterol that was released into the wash medium was collected after 30 seconds. To establish if the cholesterol that was released from the cells was exported by ABCA1, the wash step was performed in parallel using media with and without 50 μM glibenclamide, which inhibits ABCA1 activity. The total amount of cell-associated cholesterol that was released into the wash medium was measured using a fluorometric enzyme-linked assay (Cayman Chemical). Cholesterol esters were hydrolyzed using cholesterol esterase. Cholesterol was oxidized by cholesterol oxidase, producing hydrogen peroxide. The hydrogen peroxide was reacted with 10-acetyl-3,7-dihydroxyphenoxazine (ADHP) in the presence of horseradish peroxidase to produce resorufin. Resorufin fluorescence was measured using 555 nm exitation and 590 nm emission wavelengths in a SpectraMax M5 microplate reader (Molecular Devices).
# The medium was removed and replaced with 50 μl serum-free medium supplemented with 5 μg/mL apo-AI (without or with 50 μM glyburide to detect ABCA1 transporter-dependent efflux) for either 30 sec or 1 h at 37 C in 5% CO2 atmosphere. After the indicated time, the supernatant, was transferred to a new 96-well plate and a fluorometric-base cholesterol detection assay cocktail was added.
# [4] = tested on: H295R cells; assay: Resazurin reducing potential; format: cell-based; settings: 32 μM ATR-101 with 2 mM MβCD
# Experimental: FIG. 4F: […] The cells were cultured with DMSO vehicle or 32 μM ATR-101 alone, or together with 2 mM MβCD. Resazurin fluorescence intensity was measured using a microplate reader at the indicated times at 37 C. The background signal of wells without resazurin was subtracted. […] DMSO control, *P<0.05).
# [5] = tested on: H295R cells; assay: Cell morphology by phase contrast microscopy; format: cell-based; settings: 30 h
# Experimental: FIG. 4E: […] The cells were cultured with DMSO vehicle (upper images) or with 40 μM ATR-101 (lower images) alone (left images), or in combination with 1.5 mM MβCD (middle images), or in combination with 40 μM cholesterol (right images). Cell morphology was visualized by phase contrast microscopy using a 10× objective. The images are representative of 5 fields under each set of culture conditions. The scale bars denote 100 μm.
# [6] = tested on: H295R cells; assay: Caspase 3/7 activity (Apo-ONE); format: cell-based; settings: for caspase 3/7 activity, compound alone: serum-containing medium
# Experimental: The samples were incubated for 18 h at room temperature in the dark. The fluorescence was measured using a SpectraMax M5 microplate reader with a 0.5 s acquisition time.
# [7] = target: T1, MDR1 (Homo sapiens, UniProt P08183); settings: cited from earlier work
# T1 construct: measured the accumulation of doxorubicin in H295R cells; endogenous in cells; host or cells: H295R adrenocortical carcinoma cells
# [8] = tested on: adrenal cortex; settings: WHHL rabbits; cited from earlier work
# [9] = H295R cells, serum-free, 50 μM each glibenclamide, benzamil, zosuquidar, 10 μM PD129337, 4 mM MβCD
# [10] = H295R cells cultured with the compound together with ATR-101, 4 h
# [11] = H295R cells cultured with the compound together with ATR-101, 24 h
compound,measurement,setting,value
methyl-β-cyclodextrin [MβCD],effect on cholesterol accumulation caused by ATR-101,"[1]; H295R cells cultured with the compound together with ATR-101, 4 h or 24 h",prevented cholesterol accumulation; also recorded: blocked the effects of ATR-101 on cholesterol accumulation; also recorded: did not have a higher level of filipin III binding to the plasma membrane
same,"cholesterol level (filipin III binding), compound alone","[1]; H295R cells, serum-free medium containing apoA-I, 4 h",reduced the basal level of cholesterol
same,effect on cholesterol accumulation caused by ATR-101,"[1]; H295R cells, serum-free medium, 100 μM ATR-101 with 4 mM MβCD, 4 h",suppressed the cholesterol accumulation
same,cholesterol level with combinations of ABC transporter inhibitors,[1]; [9],reduced the cholesterol level
same,effect on ATP depletion by ATR-101,[2]; [10],prevented ATP depletion; also recorded: suppressed the depletion of ATP
same,effect on ATP depletion by ATR-101,[2]; [11],prevented ATP depletion
same,"effect on ATP depletion by ATR-101 in combination with ABC transporter inhibitors, substrates or U18666A","[2]; H295R cells, 2 mM MβCD",suppressed ATP depletion
same,"ATP level, compound alone","[2]; H295R cells, 4 h",little effect
same,"ATP level, compound alone","[2]; H295R cells, 24 h",little effect
same,effect on ATP depletion by ATR-101,"[2]; H295R cells, serum-free medium containing apoA-I, together with ATR-101",suppressed ATP depletion
same,effect on cholesterol crystallization in cells cultured with ATR-101,[3],did not produce crystals; also recorded: blocked
same,effect on the increase in resazurin fluorescence caused by ATR-101,[4],not inhibited
same,effect on the changes in cell morphology caused by ATR-101,[5]; 40 μM ATR-101 with 1.5 mM MβCD or 40 μM cholesterol,remained flat and adherent for at least 30 h; also recorded: prevented
same,"cell morphology, compound alone",[5]; phase contrast,little effect
same,effect on caspase 3/7 activation by ATR-101,[6]; [10],prevented ATP depletion and caspase activation; also recorded: suppressed
same,effect on caspase 3/7 activation by ATR-101,[6]; [11],prevented ATP depletion and caspase activation
same,"caspase 3/7 activity, compound alone","[6]; H295R cells, 4 h",little effect
same,"caspase 3/7 activity, compound alone","[6]; H295R cells, 24 h",little effect
same,effect on caspase activation by ATR-101,"[6]; H295R cells, serum-free medium, 100 μM ATR-101 with 4 mM MβCD",suppressed ATP depletion and caspase activation
same,caspase 3/7 activity with combinations of ABC transporter inhibitors,[6]; [9],suppressed
O[C@@H](COc1cccc2ncccc12)CN1CCN([C@@H]2c3ccccc3[C@@H]3[C@H](c4ccccc42)C3(F)F)CC1 [zosuquidar],MDR1 inhibition,[7],selectively inhibits MDR1
Cc1ccc2oc(CN(Cc3ccccc3)C(=O)Nc3c(F)cc(F)cc3F)c(-c3ccc(Cl)cc3)c2c1 [FR145237],adrenalytic effect in LDL deficient animals,[8],resistant
